pIC50, pKi: −log10 of the molar value. In brackets after ≈: the same amount, converted by molar mass. Several values for one entry are separate records, joined by “and”; a condition that tells them apart may be missing. Identical values can stand only once. Like-named read-outs stand apart in the source and are kept apart here.
Tests used:
[1] = tested on: M. tuberculosis H37Rv; assay type: cell-based; conditions: wild-type, INH-sensitive, four weeks
[2] = tested on: M. tuberculosis H37Rv ΔkatG; assay type: cell-based, Mycobacterium tuberculosis
[3] = tested on: M. tuberculosis H37Rv PmabAinhA (C-15T); assay type: cell-based; conditions: for MIC H37Rv PmabAinhA (C-15T): four weeks
[4] = target: InhA; conditions: read-out: Ki against InhA; cited from earlier work
[5] = tested on: H37Rv; conditions: cited from earlier work
[6] = tested on: InhA; conditions: read-out: InhA IC50; cited from earlier work

Compound: 5-n-butyltriclosan [Compound 10]
- MIC H37Rv [1]: 9.4 µg/mL
- MIC H37Rv ([1]; value in parentheses): 30 µM
- MIC H37Rv ΔkatG [2]: 19 (60) µg/ml and 19 (60) µM
- MIC H37Rv PmabAinhA (C-15T) [3]: 37 µg/mL
- MIC H37Rv PmabAinhA (C-15T) ([3]; value in parentheses): 120 µM

Compound: NNC(=O)c1ccncc1 [INH, isoniazid]
- MIC H37Rv ΔkatG [2]: >200 (>1400) µg/ml and >200 (>1400) µM
- fold loss in potency versus InhA(C-15T) strain compared to wild-type ([3]; MIC ratio vs wild-type strain): 13 fold

Compound: NC(=O)C1=CN([C@@H]2O[C@H](COP(=O)(O)OP(=O)(O)OC[C@H]3O[C@@H](n4cnc5c(N)ncnc54)[C@H](O)[C@@H]3O)[C@@H](O)[C@H]2O)C=C[C@@H]1C(=O)c1ccncc1 [INH-NAD]
- pKi [4]: 8.30

Compound: CCCCCCCCc1ccc(Oc2ccccc2)c(O)c1 [Sullivan’s n-octyl analog]
- MIC vs. H37Rv ([5]; des-chloro analogs of Sullivan): 6.5 µM (≈ 1.94 µg/mL)
- pIC50 [6]: 8.30

Compound: CCc1cc(C(N)=S)ccn1 [ethionamide]
- MIC [5]: 18 µM (≈ 2.99 µg/mL)
